The supplement of paper PMC13380429

Tests used:
Settings in all cases: 72 h
HepG2 [1] = test: relative viability EC50 (midpoint between 100% and the lowest measured viability); higher = less toxic
Caco-2 [2] = test: as above
U2OS [3] = test: as above
Vero E6 [4] = test: as above
HepG2 [5] = test: cell viability relative to DMSO; higher = less toxic
Caco-2 [6] = test: as above
U2OS [7] = test: as above
Calu-3 [8] = test: as above
Vero E6 [9] = test: as above
HepG2 [10] = test: drug sensitivity score (DSS) for viability; higher = more toxic; extreme values may be limits of the assay
Caco-2 [11] = test: as above
U2OS [12] = test: as above
Calu-3 [13] = test: as above
Vero E6 [14] = test: as above
Calu-3 [15] = test: relative viability EC50 (midpoint between 100% and the lowest measured viability); higher = less toxic

Row | Compound | relative viability EC50 (HepG2 [1]) [nM] | relative viability EC50 (Caco-2 [2]) [µM] | relative viability EC50 (U2OS [3]) [µM] | relative viability EC50 (Vero E6 [4]) [µM] | cell viability (HepG2 [5]; 1 nM) [%] | cell viability (HepG2 [5]; 10 nM) [%] | cell viability (HepG2 [5]; 100 nM) [%] | cell viability (HepG2 [5]; 1000 nM) [%] | cell viability (HepG2 [5]; 10000 nM) [%] | cell viability (Caco-2 [6]; 1 nM) [%] | cell viability (Caco-2 [6]; 10 nM) [%] | cell viability (Caco-2 [6]; 100 nM) [%] | cell viability (Caco-2 [6]; 1000 nM) [%] | cell viability (Caco-2 [6]; 10000 nM) [%] | cell viability (U2OS [7]; 1 nM) [%] | cell viability (U2OS [7]; 10 nM) [%] | cell viability (U2OS [7]; 100 nM) [%] | cell viability (U2OS [7]; 1000 nM) [%] | cell viability (U2OS [7]; 10000 nM) [%] | cell viability (Calu-3 [8]; 1 nM) [%] | cell viability (Calu-3 [8]; 10 nM) [%] | cell viability (Calu-3 [8]; 100 nM) [%] | cell viability (Calu-3 [8]; 1000 nM) [%] | cell viability (Calu-3 [8]; 10000 nM) [%] | cell viability (Vero E6 [9]; 1 nM) [%] | cell viability (Vero E6 [9]; 10 nM) [%] | cell viability (Vero E6 [9]; 100 nM) [%] | cell viability (Vero E6 [9]; 1000 nM) [%] | cell viability (Vero E6 [9]; 10000 nM) [%] | drug sensitivity score (HepG2 [10]) | drug sensitivity score (Caco-2 [11]) | drug sensitivity score (U2OS [12]) | drug sensitivity score (Calu-3 [13]) | drug sensitivity score (Vero E6 [14]) | relative viability EC50 (Calu-3 [15]) [µM]
1 | O=C(CCCCCCC(=O)NO)NO [SBHA] | 2270 | > 10 | > 10 | > 10 | 104 | 96.9 | 105 | 94.4 | 48.7 | 95.6 | 99.4 | 109 | 98.1 | 86.7 | 104 | 96.3 | 100 | 98.2 | 81.7 | 104 | 95.9 | 86.4 | 90.1 | 72.6 | 106 | 99.8 | 99.6 | 102 | 80.4 | 3.6 | 0.2 | 0.7 | 2.4 | 0.4 | 
2 | O=C(NO)c1ccc2[nH]c(=O)c(CCCc3ccccc3)nc2c1 [TCS-2210] | 2440 | > 10 |  | > 10 | 108 | 96.5 | 100 | 94.7 | 39.9 | 94.2 | 95.8 | 101 | 94.8 | 96.4 | 99.1 | 96.3 | 102 | 94.4 | 66.8 | 136 | 93.7 | 98 | 78.4 | 62 | 87.5 | 96.1 | 89 | 98.4 | 101 | 4.1 | 0 | 2.4 | 4.3 | 0 | 
3 | Oc1nc(-c2ccc(C(F)(F)F)cc2)nc2c1CSCC2 [XAV-939] | > 10000 | > 10 | > 10 |  | 101 | 108 | 98.2 | 99.7 | 94.4 | 103 | 97 | 99.8 | 92.3 | 101 | 105 | 101 | 101 | 99.2 | 96.4 | 110 | 94 | 97.1 | 84.1 | 71.7 | 94.6 | 98.5 | 97 | 90.4 | 69.6 | 0 | 0 | 0 | 2.7 | 2.4 | 
4 | O=C(O)COC(=O)Cc1ccccc1Nc1c(Cl)cccc1Cl [aceclofenac] |  |  |  |  |  |  |  |  |  |  |  |  |  |  |  |  |  |  |  |  |  |  |  |  |  |  |  |  |  | 0 |  | 0 | 0 | 0 | 
5 | Nc1c(CC(=O)O)cccc1C(=O)c1ccccc1 [amfenac] | > 10000 | > 10 | > 10 | > 10 | 103 | 105 | 97.9 | 106 | 101 | 101 | 97.4 | 104 | 94.1 | 97.4 | 101 | 96 | 102 | 97.2 | 104 |  |  |  |  |  | 94.1 | 102 | 97.2 | 102 | 102 | 0 | 0 | 0 |  | 0 | 
6 | Nc1ncn([C@@H]2O[C@H](CO)[C@@H](O)[C@H]2O)c(=O)n1 [azacitidine] |  |  | > 10 | 1.98 | 97.9 | 99.7 | 95.9 | 94.1 | 57.8 | 87.3 | 104 | 96.1 | 90.1 | 67.9 | 98 | 102 | 98.6 | 102 | 98.4 | 102 | 90.9 | 88.5 | 87.2 | 64 | 97.3 | 102 | 95.9 | 90.5 | 37.3 | 3.1 | 2.6 | 0 | 3.5 | 5 | 
7 | CC(C)(C)[C@H]1CC[C@H](CC2=C(O)C(=O)c3ccccc3C2=O)CC1 [buparvaquone] |  | > 10 | > 10 |  | 99.5 | 104 | 98.9 | 93.9 | 71.1 | 94.1 | 101 | 102 | 111 | 81.3 | 97.4 | 100 | 99.3 | 102 | 97.6 | 91.4 | 104 | 95 | 96.6 | 94 | 102 | 101 | 105 | 82.7 | 65.5 | 2.2 | 0.3 | 0 | 0 | 3.8 | > 10
8 | CNC(=O)Oc1cccc2ccccc12 [carbaril] |  |  |  |  |  |  |  |  |  |  |  |  |  |  |  |  |  |  |  |  |  |  |  |  |  |  |  |  |  | 0 |  | 0 | 0 | 0 | 
9 | CC[C@H](C)[C@@H]([C@@H](CC(=O)N1CCC[C@H]1[C@H](OC)[C@@H](C)C(=O)N[C@@H](Cc1ccccc1)c1nccs1)OC)N(C)C(=O)[C@@H](NC(=O)[C@H](C(C)C)N(C)C)C(C)C [dolastatin-10] | < 1 | < 0.001 | < 0.001 | < 0.001 | 24.5 | 32.5 | 32.5 | 29.4 | 22.2 | 51.5 | 40.6 | 35 | 32.2 | 20.8 | 35.8 | 22.7 | 15.4 | 15.6 | 11.1 |  |  |  |  |  | 38.5 | 24.6 | 18.4 | 17.9 | 9.9 | 34 | 31.3 | 40 |  | 39 | 
10 | CC1=NN(c2ccc(C)c(C)c2)C(=O)/C1=N\Nc1cccc(-c2cccc(C(=O)O)c2)c1O [eltrombopag] | 2710 | > 10 |  | > 10 | 97.4 | 92 | 105 | 96.8 | 44.5 | 93.5 | 89.8 | 93.5 | 97.9 | 82.1 | 95.6 | 102 | 100 | 101 | 71.1 | 114 | 102 | 100 | 96.7 | 74.3 | 97.6 | 93.5 | 91.9 | 90.7 | 82.9 | 3.4 | 0 | 1.2 | 1.5 | 0.8 | 
11 | Nc1nc2c(ncn2COC(CO)CO)c(=O)[nH]1 [ganciclovir] |  |  |  |  |  |  |  |  |  |  |  |  |  |  |  |  |  |  |  |  |  |  |  |  |  |  |  |  |  | 0 |  | 0 | 0 | 0 | 
12 | CCC(=O)O[C@@H]1CC(=O)O[C@H](C)C/C=C/C=C/[C@H](O)[C@H](C)C[C@H](CC=O)[C@H](O[C@@H]2O[C@H](C)[C@@H](O[C@H]3C[C@@](C)(O)[C@@H](OC(=O)CC)[C@H](C)O3)[C@H](N(C)C)[C@H]2O)[C@H]1OC [midecamycin] |  | > 10 | > 10 | > 10 | 103 | 93.1 | 91.5 | 98 | 74 | 94.4 | 99.1 | 103 | 91.8 | 91.4 | 97.1 | 97 | 99.2 | 96.2 | 97.6 |  |  |  |  |  | 105 | 97.7 | 101 | 102 | 95.2 | 1.3 | 0 | 0 |  | 0 | 
13 | CCCOc1ccc2[nH]c(NC(=O)OC)nc2c1 [oxibendazole] |  |  | 3.4 | 0.54 | 91.1 | 95.8 | 94.6 | 103 | 54.4 | 94.8 | 93.7 | 107 | 96.4 | 63.1 | 101 | 95.2 | 101 | 102 | 47.5 | 102 | 97.2 | 97.1 | 97.8 | 63 | 95.1 | 96.3 | 90.2 | 63.8 | 41.9 | 2.1 | 2.4 | 2.6 | 2.1 | 7.9 | 
14 | NS(=O)(=O)OC[C@@H]1C[C@@H](n2ccc3c(N[C@H]4CCc5ccccc54)ncnc32)C[C@@H]1O [pevonedistat] | 401 |  | 1.3 | 3.45 | 96.3 | 111 | 77.6 | 58.2 | 32.7 | 95.3 | 106 | 87.7 | 92.4 | 60.1 | 98.6 | 98.6 | 101 | 71 | 14.9 | 94.9 | 97.2 | 104 | 97.4 | 71.8 | 96.9 | 107 | 103 | 104 | 24.3 | 10.3 | 3.1 | 8.8 | 1.6 | 3.9 | 
15 | N=C(N)NC(=O)c1cnccn1 [pyrazinoylguanidine] | > 10000 | > 10 |  | > 10 | 104 | 97.1 | 94.9 | 99.1 | 104 | 107 | 100 | 101 | 99.7 | 101 |  |  |  |  |  |  |  |  |  |  | 99.8 | 106 | 104 | 106 | 99.7 | 0 | 0 |  |  | 0 | 
16 | C=C[C@H]1CN2CC[C@H]1C[C@@H]2[C@@H](O)c1ccnc2ccc(OC)cc12 [quinidine] |  |  |  |  |  |  |  |  |  |  |  |  |  |  |  |  |  |  |  |  |  |  |  |  |  |  |  |  |  | 0 |  | 0 | 0 | 0 | 
17 | CNCc1ccc(-c2[nH]c3cc(F)cc4c3c2CCNC4=O)cc1 [rucaparib] | > 10000 | > 10 | > 10 | > 10 | 98.8 | 109 | 95.5 | 92 | 78.7 | 94.7 | 91.2 | 97.4 | 94.5 | 89.6 | 101 | 93.4 | 98.7 | 102 | 106 |  |  |  |  |  | 96.4 | 99.9 | 96.1 | 93.7 | 93.3 | 1.1 | 0 | 0 |  | 0 | 
18 | CCN1CCCC1CNC(=O)c1cc(S(N)(=O)=O)ccc1OC (centres undefined) [sulpiride] |  |  |  |  |  |  |  |  |  |  |  |  |  |  |  |  |  |  |  |  |  |  |  |  |  |  |  |  |  | 0 |  | 0 | 0 | 0 | 
19 | O=c1ccn([C@@H]2O[C@H](CO)[C@@H](O)[C@H]2O)c(=O)[nH]1 [uridine] |  |  |  |  |  |  |  |  |  |  |  |  |  |  |  |  |  |  |  |  |  |  |  |  |  |  |  |  |  | 0.8 |  | 0 | 0 | 0 | 
